Results from paper PMC11435328, “An Innovative Inhibitor with a New Chemical Moiety Aimed at Biliverdin IXβ Reductase for Thrombocytopenia and Resilient against Cellular Degradation” (Pharmaceutics, 2024).
Where two headings read alike, the source gives them in different places.

Assays:
half-holo BLVRB = tested on: T1, half-holo BLVRB; test: 1H-15N HSQC of half-holo BLVRB with 5-ASA; type: binding, human; settings: 0.1 mM half-holo BLVRB, 1 mM 5-ASA, HSQC (Figure S3)
T1 construct: His6 (N, cleaved yes); made in house; host or cells: E. coli BL21(DE3), pET-21b
Method: All NMR experiments were performed with the Bruker 800 MHz spectrometer at 25 °C. A total of 0.2 mM ^15N-labeled BLVRB or apo-BLVRB was prepared in buffer (pH 6.5, 50 mM Bis-tris, 50 mM NaCl, and 5% D2O), and their ^1H-^15N heteronuclear single-quantum coherence (HSQC) spectra were recorded in the presence and absence of drug molecules. The 1-dimensional (1D) ^1H spectra to monitor the enzyme reactions were conducted in PBS buffer. The chemical shift perturbation (CSP) data were presented using the square root of (ΔH)^2 + [(ΔN)/6]^2 to normalize the relative effects from the CSPs of ^1H and ^15N [44]. The diffusion-ordered spectroscopy (DOSY) spectra were measured using the ledbpgppr2s, with 80 ms diffusion delay, 2 s relaxation delay, and 32 gradient strength increments. The backbone assignments were referenced from BMRB Entry ID: 27463 for holo BLVRB and Entry ID: 27462 for apo BLVRB to assign the spectra in the presence and absence of the drug.
Figure S3. 5-ASA binding of half-holo BLVRB: (A) The 1H-15N HSQC spectra of 0.1 mM half-holo BLVRB in the absence (black) and presence (red) of 1 mM 5-ASA. (B) Chemical shift diﬀerences between half-holo BLVRB and BLVRB in complex with OSK (black) and 5-ASA (red). (C) NMR ti-tration data for binding to half-holo BLVRB. […]

[1] = tested on: T2, Escherichia coli (E. coli) AzoR; test: Cleavage by partially purified AzoR fraction, monitored by 1D 1H NMR; type: in vitro ADME; settings: incubation with column fraction containing AzoR activity and NAD(P)H
T2 construct: E. coli DH5α cells were cultured in LB medium to obtain AzoR protein at 37 °C; endogenous in cells; host or cells: E. coli DH5α induced with 2-MHQ; Hitrap-Q anion-exchange fraction
Method: E. coli DH5α cells were cultured in LB medium to obtain AzoR protein at 37 °C. Since various electrophilic quinones increase the mRNA level of the acpD gene-encoding AzoR protein [36], 0.5 mM methylhydroquinone (2-MHQ) was added to the culture when the optical density of the cells at 600 nm (OD600) reached 0.8. The cells were harvested by centrifugation after ~3–4 h. To enrich the AzoR protein, anion-exchange column chromatography using the Hitrap-Q HP column (Cytiva, Marlborough, MA, USA) was performed, in which the column was pre-equilibrated with buffer (pH 8.0, 25 mM Tris-HCl), and then 1.0 M NaCl gradient was applied to elute proteins. The AzoR activity in the elution fractions was measured by the enzyme activity assay using 0.1 mM menadione and 0.1 mM NADH, in which decreasing absorption at 340 nm was measured following the previously reported method. […]
(§1) All NMR experiments were performed with the Bruker 800 MHz spectrometer at 25 °C. A total of 0.2 mM ^15N-labeled BLVRB or apo-BLVRB was prepared in buffer (pH 6.5, 50 mM Bis-tris, 50 mM NaCl, and 5% D2O), and their ^1H-^15N heteronuclear single-quantum coherence (HSQC) spectra were recorded in the presence and absence of drug molecules. […] The diffusion-ordered spectroscopy (DOSY) spectra were measured using the ledbpgppr2s, with 80 ms diffusion delay, 2 s relaxation delay, and 32 gradient strength increments. […]

[2] = cited from earlier work
[3] = molecular target: T3, human BLVRB (half-holo BLVRB) (Homo sapiens, UniProt P30043); test: Isothermal titration calorimetry (ITC) of drug binding to half-holo BLVRB; settings: 25 °C
T3 construct: His6 (N, cleaved yes); made in house; host or cells: E. coli BL21(DE3), pET-21b
T3 sequence (P30043 1-206): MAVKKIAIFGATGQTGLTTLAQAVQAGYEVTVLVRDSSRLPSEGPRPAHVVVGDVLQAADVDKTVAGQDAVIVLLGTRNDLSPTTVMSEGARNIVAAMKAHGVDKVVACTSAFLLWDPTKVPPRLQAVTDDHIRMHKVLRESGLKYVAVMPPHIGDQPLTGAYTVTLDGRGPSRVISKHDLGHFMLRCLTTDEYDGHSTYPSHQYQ
Method: (§2) The human BLVRB protein was prepared following the previously reported method. Briefly, the N-terminal His6-tagged BLVRB was expressed in the E. coli BL21(DE3) strain using the pET-21b protein expression vector. The transformed E. coli cells were grown in LB and M9 media at 37 °C to express the nonlabeled and isotope-labeled (^15N or ^13C/^15N) BLVRB proteins, respectively. To induce protein expression, 0.5 mM IPTG was added to the cultures when the OD600 reached 0.8, and then the cells were harvested after ~3–4 h. Cells were lysed by sonication in buffer (pH 8.0, 25 mM Tris-HCl, 500 mM NaCl, and 10 mM β-mercaptoethanol). The BLVRB protein was first purified by His-tag affinity column chromatography using the HisTrap HP column (Cytiva). To remove the His-tag, the protein elution was dialyzed in buffer (pH 8.0, 50 mM Tris-HCl, and 1 mM dithiothreitol) overnight at 4 °C, after adding thrombin (~5 units per mg protein). Since thrombin bound to HiTrap-Q HP column at pH 8.0, ion-exchange column chromatography was performed with buffer (pH 8.0, 25 mM Tris-HCl, and 1 mM dithiothreitol), and then the elution was performed with 1.0 M NaCl gradient; BLVRB and thrombin eluted at ~150 and ~300 mM NaCl, respectively. To separate the His6-tagged BLVRB from the completely cleaved BLVRB, the HisTrap HP column was tandemly attached to the next of the HiTrap-Q column. The BLVRB protein was further purified by size exclusion chromatography (SEC) using the HiLoad 16/600 Superdex 75 (Cytiva) with nonbuffered solution (50 mM NaCl and 1 mM dithiothreitol). The protein fractions were concentrated using an ultracentrifugal filter with 10 kDa MWCO (Millipore, Burlington, MA, USA) and then were stored at −70 °C before use. Apo-BLVRB was prepared using the previously reported refolding method, with additional column chromatography steps. Briefly, the purified BLVRB was denatured in buffer (pH 7.5, 25 mM Tris-HCl, 10 mM β-mercaptoethanol, and 6.0 M urea) and then applied to the HisTrap HP column. After washing with buffer (pH 5.0, 25 mM Na-acetate, 10 mM β-mercaptoethanol, and 6.0 M urea), they were eluted with an additional 1.0 M NaCl gradient. After 2-fold dilution with buffer (pH 5.0, 20 mM Na-acetate, 10 mM β-mercaptoethanol, and 6.0 M urea), apo-BLVRB was further purified by cation-exchange column chromatography using the HiTrap-SP column (Cytiva). Protein elution was performed by 1.0 M NaCl gradient in the presence of 6.0 M urea. The protein was refolded by dialysis in buffer (pH 6.5, 50 mM Bis-tris, 150 mM NaCl, and 1 mM DTT). After removing the aggregate (~20%) by centrifuge, it was purified by SEC using the HiLoad 16/600 Superdex 75 with buffer (pH 6.5, 10 mM Bis-tris, 50 mM NaCl, and 1 mM DTT). The apo-BLVRB solution was concentrated and then stored at −70 °C. Although thawing the frozen sample caused ~10% precipitation of apo-BLVRB, the maintenance of the structure was confirmed by ^1H-^15N HSQC spectrum. The concentration was also determined using UV absorption with an extinction coefficient (A280) of 14,440 M^−1⋅cm^−1. The purity was confirmed by SDS-PAGE gel analysis.
The ITC experiment was conducted in buffer (pH 6.5, 50 mM Bis-tris, 50 mM NaCl, and 0.1 mM TCEP) using a Microcal Auto-iTC200 (Malvern Instruments, Malvern, UK) at 25 °C. The calorimetric cell (200 μL) and syringe (40 μL) were loaded with 0.09 mM BLVRB and 1.1 mM drug (OSK or OSA), respectively. The ITC data were analyzed after subtracting the heat from blank injections that were measured under the same conditions but in the absence of BLVRB. Data processing was carried out using the Origin software provided by the manufacturer, where the fittings were performed with a one-site binding model.

apo-BLVRB = molecular target: T4, apo-BLVRB (Homo sapiens, UniProt P30043); test: NMR 1H-15N HSQC chemical shift perturbation titration of apo-BLVRB; type: binding; settings: for Kd: Apo-BLVRB from NMR CSP experiment; for binding to apo-BLVRB: HSQC of apo-BLVRB titrated with drug (Figure S4)
T4 construct: His6 (N); made in house; host or cells: E. coli BL21(DE3), pET-21b
T4 sequence (P30043 1-206): T3 sequence (P30043 1-206)
Method: as §2, with “After 2-fold dilution with buffer (pH 5.0, 20 mM Na-acetate, 10 mM β-mercaptoethanol, and 6.0 M urea), apo-BLVRB was further purified by cation-exchange column chromatography using the HiTrap-SP column (Cytiva). Protein elution was performed by 1.0 M NaCl gradient in the presence of 6.0 M urea. The protein was refolded by dialysis in buffer (pH 6.5, 50 mM Bis-tris, 150 mM NaCl, and 1 mM DTT). After removing the aggregate (~20%) by centrifuge, it was purified by SEC using the HiLoad 16/600 Superdex 75 with buffer (pH 6.5, 10 mM Bis-tris, 50 mM NaCl, and 1 mM DTT). The apo-BLVRB solution was concentrated and then stored at −70 °C. Although thawing the frozen sample caused ~10% precipitation of apo-BLVRB, the maintenance of the structure was confirmed by ^1H-^15N HSQC spectrum.” left out, “The purity was confirmed by SDS-PAGE gel analysis.” left out
as §1

BLVRB = molecular target: T5, BLVRB (Homo sapiens, UniProt P30043); test: BLVRB enzyme activity assay (NADPH absorption at 340 nm, FMN substrate); type: biochemical; settings: for uncompetitive inhibition constant (Kiu) / Ki: 0.5 µM BLVRB, 100 µM FMN, 100 µM NADPH, PBS, 0.5% DMSO, mixed inhibition model; for Ki: read-out: competitive inhibition constant (Kic); for inhibition pattern (Lineweaver–Burk plot): BLVRB in the presence of NADPH; for maximum velocity (Vm): enzyme parameter of BLVRB from the fit of the data set with this inhibitor
T5 construct: His6 (N, cleaved yes); made in house; host or cells: E. coli BL21(DE3), pET-21b
T5 sequence (P30043 1-206): T3 sequence (P30043 1-206)
Method: Enzyme kinetics were monitored using the absorption of NADPH at 340 nm with the SpectraMax Gemini EM Microplate Reader (Molecular Devices, San Jose, CA, USA). The enzyme reactions were conducted with 0.5 µM BLVRB, 100 µM FMN, and 100 µM NADPH in PBS buffer containing 0.5% DMSO in the presence of various concentrations of inhibitors (OSK and OSA). The initial velocities of the reactions were estimated from data collected over 5 min and were fitted to the Michaelis–Menten equation. The inhibition model and inhibition constants were determined using the in-house Python script of nonlinear least squares regression fitting.

[4] = molecular target: T3, human BLVRB (half-holo BLVRB); design: method as in PMID 34957824; settings: ITC, 25 °C; cited from earlier work
rats = tested on: rats; design: method as in PMID 2160137; settings: cited from earlier work

Row | Structure (SMILES) | cleavage by AzoR [1] | Kd [3] | TΔS [3] | ΔG [3] | ΔH [3] | Kd (apo-BLVRB) | binding to apo-BLVRB (apo-BLVRB) | uncompetitive inhibition constant (Kiu) (BLVRB) | Ki (BLVRB) | inhibition pattern (Lineweaver–Burk plot) (BLVRB) | maximum velocity (Vm) (BLVRB) | other results
1 | Nc1ccc(O)c(C(=O)O)c1 [5-ASA, 5-aminosalicylic acid] | – | – | – | – | – | – | – | – | – | – | – | binding to BLVRB (half-holo BLVRB): reduced significantly
2 | O=C(O)c1cc(/N=N/c2ccc(O)c(C(=O)O)c2)ccc1O [Olsalazine, olsalazine] | cleavage of its diazenyl bond and the formation of 5-ASA | 150 ± 230 nM | -4.22 ± 0.13 kcal/mol | -9.32 ± 0.09 kcal/mol | -13.54 ± 0.08 kcal/mol | 9310 ± 2410 nM | able to bind to the apo-BLVRB | 0.79 ± 0.06 µM | 550 ± 40 nM | mixed inhibition pattern | 4.71 ± 0.09 µM/min | plasma elimination half-life [2]: approximately 1 h
3 | O=C(O)c1cc(/C=C/c2ccc(O)c(C(=O)O)c2)ccc1O [Olsalkene, (E)-5,5′-(ethene-1,2-diyl)bis(2-hydroxybenzoic acid)] | remains intact and is not cleaved by AzoR | 140 ± 270 nM | -5.98 ± 0.17 kcal/mol | -9.33 ± 0.11 kcal/mol | -15.31 ± 0.12 kcal/mol | 11400 ± 2220 nM | able to bind to the apo-BLVRB | 0.61 ± 0.06 µM | 560 ± 100 nM | mixed inhibition pattern | 4.80 ± 0.16 µM/min | –
4 | O=C([O-])c1c(Cl)c(Cl)c(Cl)c(Cl)c1-c1c2cc(Br)c(=O)c(Br)c-2oc2c(Br)c([O-])c(Br)cc12.[Na+].[Na+] [Phloxine B, phloxine B] | – | – | – | – | – | – | – | – | – | – | – | Kd [4]: 1360 ± 220 nM; TΔS [4]: 4.12 ± 0.12 kcal/mol; ΔG [4]: -8.00 ± 0.10 kcal/mol; ΔH [4]: -3.88 ± 0.06 kcal/mol
5 | O=C1OC2(c3ccccc31)c1cc(I)c(O)c(I)c1Oc1c2cc(I)c(O)c1I [erythrosin B] | – | – | – | – | – | – | – | – | – | – | – | effect of chronic administration (rats): thyroid stimulation
